Test results as given in the NIST ThermoML archive (doi:10.1016/j.jct.2015.11.027).
± gives the expanded uncertainty stated by the source.

Details: Liquid, Vibrating wire viscometry

CCc1ccccc1 [ethylbenzene]
Details	viscosity [mPa·s]
253.21 K, 5000 kPa	1.259 ± 0.026
253.22 K, 1000 kPa	1.211 ± 0.025
253.22 K, 10000 kPa	1.311 ± 0.028
253.22 K, 35000 kPa	1.593 ± 0.033
253.23 K, 100 kPa	1.2 ± 0.025
253.23 K, 20000 kPa	1.423 ± 0.03
253.23 K, 25000 kPa	1.479 ± 0.031
253.24 K, 15000 kPa	1.368 ± 0.029
253.24 K, 30000 kPa	1.535 ± 0.032
263.2 K, 10000 kPa	1.11 ± 0.024
263.2 K, 15000 kPa	1.16 ± 0.025
263.21 K, 5000 kPa	1.063 ± 0.023
263.21 K, 20000 kPa	1.207 ± 0.025
263.21 K, 25000 kPa	1.257 ± 0.026
263.21 K, 35000 kPa	1.35 ± 0.028
263.22 K, 100 kPa	1.021 ± 0.022
263.22 K, 1000 kPa	1.028 ± 0.022
263.22 K, 30000 kPa	1.304 ± 0.027
273.15 K, 5000 kPa	0.9249 ± 0.02
273.15 K, 20000 kPa	1.042 ± 0.022
273.15 K, 30000 kPa	1.123 ± 0.024
273.15 K, 35000 kPa	1.163 ± 0.025
273.16 K, 25000 kPa	1.082 ± 0.023
273.17 K, 1000 kPa	0.8919 ± 0.019
273.18 K, 10000 kPa	0.9635 ± 0.021
273.19 K, 15000 kPa	1.003 ± 0.021
273.21 K, 100 kPa	0.8832 ± 0.019
283.13 K, 1000 kPa	0.7784 ± 0.017
283.14 K, 10000 kPa	0.8372 ± 0.018
283.15 K, 20000 kPa	0.9017 ± 0.019
283.16 K, 100 kPa	0.7737 ± 0.017
283.16 K, 5000 kPa	0.8028 ± 0.017
283.16 K, 30000 kPa	0.9641 ± 0.021
283.16 K, 35000 kPa	0.9964 ± 0.021
283.17 K, 15000 kPa	0.8678 ± 0.019
283.17 K, 25000 kPa	0.9314 ± 0.02
293.18 K, 5000 kPa	0.7056 ± 0.015
293.2 K, 1000 kPa	0.6832 ± 0.015
293.22 K, 25000 kPa	0.8173 ± 0.018
293.23 K, 15000 kPa	0.7607 ± 0.017
293.24 K, 10000 kPa	0.7327 ± 0.016
293.24 K, 20000 kPa	0.7871 ± 0.017
293.24 K, 30000 kPa	0.8447 ± 0.018
293.26 K, 100 kPa	0.6786 ± 0.015
293.26 K, 35000 kPa	0.8724 ± 0.019
303.15 K, 100 kPa	0.6033 ± 0.013
303.17 K, 1000 kPa	0.6074 ± 0.013
303.17 K, 20000 kPa	0.6989 ± 0.015
303.18 K, 5000 kPa	0.6268 ± 0.014
303.18 K, 25000 kPa	0.7235 ± 0.016
303.18 K, 35000 kPa	0.7739 ± 0.017
303.19 K, 15000 kPa	0.6744 ± 0.015
303.19 K, 30000 kPa	0.7502 ± 0.016
303.2 K, 10000 kPa	0.6499 ± 0.014
313.08 K, 30000 kPa	0.6722 ± 0.015
313.09 K, 20000 kPa	0.6261 ± 0.014
313.1 K, 10000 kPa	0.5812 ± 0.013
313.1 K, 25000 kPa	0.649 ± 0.014
313.1 K, 35000 kPa	0.694 ± 0.015
313.11 K, 5000 kPa	0.5596 ± 0.013
313.12 K, 100 kPa	0.5386 ± 0.012
313.12 K, 1000 kPa	0.5427 ± 0.012
313.12 K, 15000 kPa	0.6039 ± 0.013
322.97 K, 100 kPa	0.4865 ± 0.011
322.97 K, 20000 kPa	0.5648 ± 0.013
322.98 K, 1000 kPa	0.4895 ± 0.011
322.98 K, 5000 kPa	0.5042 ± 0.011
322.98 K, 10000 kPa	0.5245 ± 0.012
322.98 K, 15000 kPa	0.544 ± 0.012
322.98 K, 25000 kPa	0.5856 ± 0.013
322.98 K, 30000 kPa	0.606 ± 0.013
322.98 K, 35000 kPa	0.6259 ± 0.014
332.91 K, 100 kPa	0.4422 ± 0.01
332.91 K, 5000 kPa	0.4595 ± 0.011
332.92 K, 1000 kPa	0.4448 ± 0.01
332.92 K, 10000 kPa	0.478 ± 0.011
332.92 K, 15000 kPa	0.4961 ± 0.011
332.92 K, 20000 kPa	0.5149 ± 0.012
332.92 K, 25000 kPa	0.5331 ± 0.012
332.92 K, 30000 kPa	0.5516 ± 0.012
332.92 K, 35000 kPa	0.5706 ± 0.013
342.8 K, 1000 kPa	0.4049 ± 0.0095
342.8 K, 10000 kPa	0.4356 ± 0.01
342.8 K, 15000 kPa	0.4524 ± 0.01
342.8 K, 20000 kPa	0.4691 ± 0.011
342.8 K, 25000 kPa	0.4869 ± 0.011
342.8 K, 30000 kPa	0.5045 ± 0.011
342.8 K, 35000 kPa	0.5223 ± 0.012
342.81 K, 100 kPa	0.4022 ± 0.0095
342.81 K, 5000 kPa	0.4186 ± 0.0098
352.72 K, 5000 kPa	0.3851 ± 0.0091
352.72 K, 20000 kPa	0.4335 ± 0.01
352.72 K, 35000 kPa	0.4807 ± 0.011
352.73 K, 100 kPa	0.3693 ± 0.0088
352.73 K, 1000 kPa	0.372 ± 0.0089
352.73 K, 10000 kPa	0.4003 ± 0.0094
352.73 K, 15000 kPa	0.4164 ± 0.0097
352.73 K, 25000 kPa	0.4495 ± 0.01
352.73 K, 30000 kPa	0.4654 ± 0.011
362.66 K, 100 kPa	0.339 ± 0.0083
362.66 K, 1000 kPa	0.3418 ± 0.0083
362.66 K, 5000 kPa	0.3538 ± 0.0086
362.66 K, 15000 kPa	0.3838 ± 0.0091
362.66 K, 20000 kPa	0.3986 ± 0.0094
362.66 K, 25000 kPa	0.4137 ± 0.0097
362.66 K, 30000 kPa	0.4289 ± 0.01
362.67 K, 10000 kPa	0.3685 ± 0.0088
362.67 K, 35000 kPa	0.4429 ± 0.01
372.59 K, 5000 kPa	0.3272 ± 0.0081
372.59 K, 10000 kPa	0.341 ± 0.0083
372.59 K, 15000 kPa	0.3541 ± 0.0086
372.59 K, 20000 kPa	0.3688 ± 0.0088
372.59 K, 25000 kPa	0.3822 ± 0.0091
372.59 K, 30000 kPa	0.3967 ± 0.0094
372.59 K, 35000 kPa	0.4108 ± 0.0096
372.6 K, 1000 kPa	0.3155 ± 0.0079
372.61 K, 100 kPa	0.3127 ± 0.0078
